Assay results reported in patent publication US20190211099A1, “METHODS AND COMPOSITIONS FOR TREATING CANCER WITH SIGLEC-9 ACTIVITY MODULATORS” (KING'S COLLEGE LONDON, priority 2016, published 2019).

Key:
macrophages = assay: Kynurenine in supernatant of MUC1-ST treated macrophages (Ehrlich Reagent); assay type: cell-based, human
Description: Given that IDO catalyzes the rate-limiting step in the metabolism of tryptophan, the tryptophan metabolite kynurenine was detected as follows. 604, supernatant was mixed with 304, 30% trichloroacetic acid (TCA) and incubated for 30 minutes at 50° C. The supernatant was spun at 3000×g and 50 μL was harvested and mixed with 50 μL freshly prepared Ehrlich Reagent (2% p-dimethylaminobenzaldehyde in glacial acetic acid). After 10 minutes optical density (O.D.) was measured at 492 nm, and concentrations were calculated against a kynurenine standard curve. An increase in the tryptophan metabolite kynurenine was observed (FIG. 11D).

monocytes = assay: Calcium flux in monocytes (Fluo-4 intracellular calcium reporter); assay type: cell-based, human; conditions: monocytes or macrophages, 100 μg/10^6 cells
Description: In addition, in a murine tumor model Siglec-E (the mouse Siglec with the most similarity to human Siglec-9), was associated with a decrease in alternatively activated macrophages (Laubli et al. (2014) PROC. NATL. ACAD. SCI. USA). As a result, the triggering of a calcium flux when MUC1-ST engaged Siglec-9 was investigated. Briefly, monocytes pre-labeled with an intracellular calcium reporter (Fluo-4; Life Technologies) were treated with MUC1-ST, MUC1-T (100 μg/10^6 cells) or a T47D monolayer, for 4 hours at 4° C. The cells were brought up to 37° C. and calcium flux was measured at 530 nm using a plate reader at the indicated time points. Where not indicated, the time point was 60 seconds. When monocytes or macrophages were treated with MUC1-ST, a Siglec-9 dependent increase in calcium influx was observed (FIGS. 13E-F). A calcium flux was also observed when monocytes and T47D cells came into contact. This effect could also be inhibited by the anti-Siglec-9 antibody.

SHP2 = assay: Activation of SHP2 after MUC1-ST binding; assay type: cell-based, human
Description: ELISAs for IL-6, IL-12p70, TGF-β1, PAI-1, M-CSF, EGF, SHP2, phospho-SHP2 (Biotechne) were all carried out as per manufacturer's instructions.
A Western blot to assay phosphorylation of SHP, which is recruited by phosphorylated Siglec-9 (Avril et al. (2004) supra) was conducted. Monocytes were incubated with MUC1-ST and lysed as described above, and the resulting lysates were separated by SDS PAGE (10% gel) before being transferred, blocked and probed with anti-SHP1 (Santa Cruz), anti-phospho SHP1 (Abcam) and appropriate secondary antibodies. Phosphorylation of SHP was not observed after MUC1-ST binding to Siglec-9 on primary monocytes (FIG. 13C) although again, phosphorylation of SHP1 was observed when Siglec-9 was activated via antibody cross-linking. No activation of SHP2 was observed.

Siglec-9 = Siglec-9 (Homo sapiens, UniProt Q9Y336); assay: Binding of biotinylated MUC1-ST to primary monocytes and monocyte-derived macrophages (flow cytometry), with or without blocking antibody; assay type: cell-based; set-up: endogenous in cells; host or cells: THP-1 and U937 cells; conditions: primary monocytes, monocyte-derived macrophages and AML lines
Siglec-9, sequence (Q9Y336 18-463): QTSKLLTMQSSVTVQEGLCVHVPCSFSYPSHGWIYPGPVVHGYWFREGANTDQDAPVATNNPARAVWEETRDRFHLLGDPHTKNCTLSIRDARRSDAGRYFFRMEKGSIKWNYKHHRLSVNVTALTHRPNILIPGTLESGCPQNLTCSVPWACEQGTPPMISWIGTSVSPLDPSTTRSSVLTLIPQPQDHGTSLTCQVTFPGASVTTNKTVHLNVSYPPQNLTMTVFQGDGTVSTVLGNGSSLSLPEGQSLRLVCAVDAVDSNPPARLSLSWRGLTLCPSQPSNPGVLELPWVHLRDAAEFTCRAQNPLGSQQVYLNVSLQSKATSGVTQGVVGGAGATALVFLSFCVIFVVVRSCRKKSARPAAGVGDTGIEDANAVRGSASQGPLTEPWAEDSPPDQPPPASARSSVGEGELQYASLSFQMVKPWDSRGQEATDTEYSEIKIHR
Description: Both the cell phenotype staining and neutralization studies described in the Examples were performed using the following antibodies (all anti-human): Siglec-9 (Biotechne; 191240), Siglec-9 FITC (Biotechne; 191240), Siglec-3 (Biotechne; 6C5/2), Siglec-7 (Biotechne; AF1138), Siglec-3 FITC (BD; P67.6), Siglec-7 PE (Biolegend; 6-434), Siglec-10 PE (Biolegend; 5G6), Siglec-1 (abcam; 7D2), HLA-DR FITC (Beckman Coulter; IM0463U), CD16 FITC (Biolegend; B73.1), CD14 FITC (BD 555397), CD69 PE (Beckman Coulter; IM1943), CD25 FITC (ABX228FITC), CD86 PE (Beckman Coulter; IM2729U), CD40 FITC (BD 555588), CD83 PE (Beckman Coulter; IM2218), CD163 PE (Biolegend; GHI/61), CXCR1 FITC (BD Pharmongen; 551126), CD45 PC5 (Beckman Coulter; IM2653U), CD206 PE (ebioscience; 19.2), PD-L1 PE (Biolegend; 29E.2A3), CD36 (Santa Cruz; H-300), TGFbetaRII (Bio-Techne; AF-241), IL-6Rα (Tocilizumab; Roche. A generous gift from Dr. Valerie Corrigall). Cells were suspended in PBS+0.5% BSA (2×10^5 cells/100 μL/sample) and incubated with Abs according to the manufacturer's instructions. At least 1×10^4 events were evaluated using either Epics XL, (Beckman Coulter) or FACSCalibur (BD Biosciences) flow cytometers. […]
To investigate the interaction of MUC1-ST with cells of the immune system, immune cell subsets were obtained as follows. […] Purity was assessed at >95% by staining with relevant antibodies. […]

activation of SHP2 (SHP2): No activation
binding to cells (Siglec-9): found to bind
Substance: NeuAcα2,3Galβ1-3GalNAc linked via a Ser/Thr of MUC1 [MUC1-ST]
tryptophan metabolite kynurenine in supernatant (macrophages): increase
calcium influx (monocytes): increase
